Laboratory results as given in patent US20250000881A1, “TREATMENT OF TREATMENT RESISTANT […] PSILOCYBIN” (COMPASS […], priority 2021, published 2025).

Tested on: adult subjects with TRD
Assay: Phase 2b trial in TRD: safety, treatment emergent adverse events
Type: in vivo, human
Text: Another objective was to evaluate the safety and tolerability of psilocybin in subjects with TRD based on AEs, changes in vital signs, and suicidal ideation/behaviour (measured using the Columbia-Suicide Severity Rating Scale [C-SSRS]) score at all visits.
Throughout the course of the study, all adverse events (AEs) were monitored and recorded and included the AE's description, start and end date, seriousness, severity, action taken, and relationship to the treatment. If AEs occurred, the first concern was the safety of the study subjects.
An AE can therefore be any unfavorable and unintended sign (including an abnormal laboratory finding, for example), symptom, or disease temporally associated with the use of a medicinal product, whether considered related to the medicinal product.
AEs were coded by Preferred Term (PT) using the Medical Dictionary for Regulatory Activities (MedDRA) classification. All reported AEs with onset or worsening after the administration of study medication were included in the analysis. The incidence of AEs was summarized by treatment group, and by severity and relationship to psilocybin. Serious AEs and AEs leading to withdrawal from the study will be tabulated.
A TEAE is defined as any AE that has an onset on or after the dose of psilocybin, or any pre-existing condition that has worsened on or after the dose of psilocybin.
The incidence of TEAEs and treatment-related AEs were summarized by maximum severity and most-related relationship to psilocybin by MedDRA primary system organ class and PT. The summary included the total number and percentage of subjects reporting an event.

CN(C)CCc1c[nH]c2cccc(OP(=O)(O)O)c12 [COMP360, psilocybin]
1 (1.3) n (%): Any TESAE, participants (1 mg (N = 79)) | TEAE Abdominal pain upper, participants (1 mg (N = 79)) | TEAE Dizziness, participants (1 mg (N = 79)) | TEAE Irritability, participants (1 mg (N = 79)) | TEAE Mood altered, participants (1 mg (N = 79)) | TEAE Myalgia, participants (1 mg (N = 79)) | TEAE Panic reaction, participants (1 mg (N = 79)) | TEAE Paraesthesia, participants (1 mg (N = 79)) | TESAE Intentional self-injury, participants (1 mg (N = 79)) | TEAE Dizziness, participants (10 mg (N = 75)) | TEAE Panic reaction, participants (10 mg (N = 75)) | TESAE Depression, participants (10 mg (N = 75)) | TESAE Hospitalisation, participants (10 mg (N = 75))
7 (9.3) n (%): TEAE Nausea, participants (10 mg (N = 75))
one: Patients with TESAEs of suicidal ideation, suicidal behaviour and intentional self-injury (1 mg group)
13 (17.3) n (%): TEAE Anxiety, participants (10 mg (N = 75))
6 (7.6) n (%): TEAE Back pain, participants (25 mg (N = 79))
7 (8.9) n (%): TEAE Fatigue, participants (1 mg (N = 79)) | TEAE Anxiety, participants (25 mg (N = 79))
5 (6.3) n (%): TEAE Depression, participants (1 mg (N = 79)) | Any TESAE, participants (25 mg (N = 79))
14 (17.7) n (%): TEAE Insomnia, participants (1 mg (N = 79))
6 (8.0) n (%): Any TESAE, participants (10 mg (N = 75)) | TEAE Depression, participants (10 mg (N = 75))
0 n (%): TEAE Thinking abnormal, participants (1 mg (N = 79)) | TESAE Adjustment disorder with anxiety, participants (1 mg (N = 79)) | TESAE Adjustment disorder with mixed anxiety and depressed mood, participants (1 mg (N = 79)) | TESAE Depression, participants (1 mg (N = 79)) | TESAE Drug withdrawal syndrome*, participants (1 mg (N = 79)) | TESAE Hospitalisation, participants (1 mg (N = 79)) | TESAE Suicidal behaviour, participants (1 mg (N = 79)) | TESAE Suicidal ideation, participants (1 mg (N = 79)) | TEAE Back pain, participants (10 mg (N = 75)) | TESAE Adjustment disorder with anxiety, participants (10 mg (N = 75)) | TESAE Adjustment disorder with mixed anxiety and depressed mood, participants (10 mg (N = 75)) | TESAE Drug withdrawal syndrome*, participants (10 mg (N = 75)) | TESAE Suicidal behaviour, participants (10 mg (N = 75))
four: Patients with TEAEs of suicidal ideation, suicidal behaviour and intentional self-injury (1 mg group) | Patients with TESAEs of suicidal ideation, suicidal behaviour and intentional self-injury (10 mg group)
20 (25.3) n (%): TEAE Headache, participants (1 mg (N = 79))
six: Patients with TEAEs of suicidal ideation, suicidal behaviour and intentional self-injury (10 mg group)
16 (21.3) n (%): TEAE Headache, participants (10 mg (N = 75))
11 (14.7) n (%): TEAE Insomnia, participants (10 mg (N = 75))
5 (6.7) n (%): TEAE Depressed mood, participants (10 mg (N = 75)) | TEAE Euphoric mood, participants (10 mg (N = 75)) | TEAE Fatigue, participants (10 mg (N = 75)) | TEAE Suicidal ideation, participants (10 mg (N = 75))
2 (2.7) n (%): TEAE Abdominal pain upper, participants (10 mg (N = 75)) | TEAE Irritability, participants (10 mg (N = 75)) | TEAE Myalgia, participants (10 mg (N = 75)) | TESAE Intentional self-injury, participants (10 mg (N = 75)) | TESAE Suicidal ideation, participants (10 mg (N = 75))
3 (4.0) n (%): TEAE Mood altered, participants (10 mg (N = 75))
3 (3.8) n (%): TEAE Anxiety, participants (1 mg (N = 79)) | TEAE Back pain, participants (1 mg (N = 79)) | TEAE Depressed mood, participants (25 mg (N = 79))
4 (5.1) n (%): TEAE Depressed mood, participants (1 mg (N = 79)) | TEAE Euphoric mood, participants (1 mg (N = 79)) | TEAE Nausea, participants (1 mg (N = 79)) | TEAE Suicidal ideation, participants (1 mg (N = 79)) | TEAE Abdominal pain upper, participants (25 mg (N = 79))
4 (5.3) n (%): TEAE Paraesthesia, participants (10 mg (N = 75)) | TEAE Thinking abnormal, participants (10 mg (N = 75))
